Values quoted from earlier work as cited in US20140332438A1, “WATER-SOLUBLE MELOXICAM GRANULES” (Boehringer Ingelheim Vetmedica GmbH, priority 2002, published 2014).

Conditions: aqueous solution, according to EP-A-0 945 134

In the case of Cc1cnc(NC(=O)C2=C(O)c3ccccc3S(=O)(=O)N2C)s1 [meloxicam, 4-hydroxy-2-methyl-N-(5-methyl-2-thiazolyl)-2H-1,2-benzothiazine-3-carboxamide-1,1-dioxide], the solubility in water is listed as “does not dissolve readily in water”.
